What was measured:
[1] = tested on: Trichophyton rubrum (T. rubrum) ATCC10218; assay: Antifungal activity against dermatophytes (MIC, WST8); type: cell-based; settings: 80% growth inhibiting concentration; RPMI1640/MOPS, 28° C., 4 days, 1% DMSO
Procedure: (§1) Measurement of the antifungal activity against dermatophytes of the compound of the formula (I) contained in the topical liquid agent of the present invention was carried out by the following method. The compound to be evaluated was used by dissolving in dimethyl sulfoxide (DMSO). As a medium for the test, RPMI1640 medium containing 0.165M of 3-morpholinopropanesulfonic acid (MOPS) was used. As fungi to be tested, Trichophyton mentagrophytes (T. mentagrophytes) ATCC18748 or Trichophyton rubrum (T. rubrum) ATCC10218 was used. The testing fungal strain was apportioned to […] with a concentration of 1×10^4 conidia/ml, mixed with a compound to be evaluated on a 96-well half area plate so that the DMSO concentration became 1%, and cultured at a cultivation temperature of 28° C. for 3 days (T. mentagrophytes) or 4 days (T. rubrum). Thereafter, 5 μl of Cell Counting Kit 8 (WST8) was added thereto, and absorbances at 450 nm and 595 nm were measured to use these as background values. Thereafter, these were cultivated at 28° C. for 5 hours (T. mentagrophytes) or overnight (T. rubrum) to cause a color, and absorbances at 450 nm and 595 nm were measured again. A growth inhibiting rate was calculated from the difference to the background values, and a 80% growth inhibiting concentration was made an MIC value […].

[2] = tested on: Trichophyton mentagrophytes (T. mentagrophytes) ATCC18748; assay: as above; type: cell-based; settings: 80% growth inhibiting concentration; RPMI1640/MOPS, 28° C., 3 days, 1% DMSO
Procedure: as §1

Cc1cc(C)n(-c2ccc(C(N)=O)cc2O)n1 [compound 39]
MIC (T. rubrum) [1]: C (16 to 32 μg/ml)

Cc1cc(C)n(-c2ccc(Cl)cc2O)n1 [compound 26]
MIC (T. rubrum) [1]: A (≦2 μg/ml) | MIC (T. mentagrophytes) [2]: A (≦1 μg/ml)

Cc1cc(C)n(-c2ccc(CO)cc2O)n1 [compound 47]
MIC (T. rubrum) [1]: B (4 to 16 μg/ml)

Cc1nn(-c2ccc([N+](=O)[O-])cc2O)c(C)c1C [compound 32]
MIC (T. rubrum) [1]: B (4 to 16 μg/ml)

Cc1cc(C)n(-c2ccc(C(=O)O)cc2O)n1 [compound 37]
MIC (T. rubrum) [1]: B (4 to 16 μg/ml)

Cc1nn(-c2cc(O)ccc2O)c(C)c1Cl [compound 19]
MIC (T. rubrum) [1]: C (16 to 32 μg/ml)

Cc1cc(C)n(-c2ccccc2O)n1 [compound 1]
MIC (T. rubrum) [1]: B (4 to 16 μg/ml)

Cc1nn(-c2ccccc2O)c(C)c1F [compound 53]
MIC (T. rubrum) [1]: B (4 to 16 μg/ml)

COc1ccc(-n2nc(C)cc2C)c(O)c1 [compound 45]
MIC (T. rubrum) [1]: A (≦2 μg/ml) | MIC (T. mentagrophytes) [2]: A (≦1 μg/ml)

COC(=O)CCc1c(C)nn(-c2ccccc2O)c1C [compound 23]
MIC (T. rubrum) [1]: D (>32 to 64 μg/ml)

Cc1cc(C)n(-c2cc(Cl)ccc2O)n1 [compound 11]
MIC (T. rubrum) [1]: D (>32 to 64 μg/ml)

CCc1cc(CC)n(-c2ccccc2O)n1 [compound 14]
MIC (T. rubrum) [1]: B (4 to 16 μg/ml)

Cc1cc(C)n(-c2c(O)cccc2O)n1 [compound 43]
MIC (T. rubrum) [1]: D (>32 to 64 μg/ml)

Cc1nn(-c2ccccc2O)c(C)c1C [compound 9]
MIC (T. rubrum) [1]: A (≦2 μg/ml) | MIC (T. mentagrophytes) [2]: A (≦1 μg/ml)

CC(=O)Oc1ccc(-n2nc(C)c(C)c2C)c(O)c1 [compound 59]
MIC (T. rubrum) [1]: B (4 to 16 μg/ml)

Cc1nn(-c2ccccc2O)c(C)c1Cl [compound 13]
MIC (T. rubrum) [1]: B (4 to 16 μg/ml) | MIC (T. mentagrophytes) [2]: A (≦1 μg/ml)

Cc1cc(C)n(-c2ccc(C(F)(F)F)cc2O)n1 [compound 50]
MIC (T. rubrum) [1]: B (4 to 16 μg/ml)

Cc1nn(-c2ccc(O)cc2O)c(C)c1Cl [compound 63]
MIC (T. rubrum) [1]: A (≦2 μg/ml) | MIC (T. mentagrophytes) [2]: A (≦1 μg/ml)

CCc1c(C)nn(-c2ccccc2O)c1C [compound 17]
MIC (T. rubrum) [1]: A (≦2 μg/ml) | MIC (T. mentagrophytes) [2]: A (≦1 μg/ml)

Cc1nn(-c2ccc(N)cc2O)c(C)c1C [compound 34]
MIC (T. rubrum) [1]: B (4 to 16 μg/ml)

Cc1nn(-c2ccc(C(N)=O)cc2O)c(C)c1Cl [compound 42]
MIC (T. rubrum) [1]: D (>32 to 64 μg/ml)

Cc1cc(C(F)(F)F)nn1-c1ccccc1O [compound 5]
MIC (T. rubrum) [1]: D (>32 to 64 μg/ml)

Cc1nn(-c2ccc(C(N)=O)cc2O)c(C)c1C [compound 41]
MIC (T. rubrum) [1]: D (>32 to 64 μg/ml)

Cc1cc(C)n(-c2cccc(O)c2O)n1 [compound 15]
MIC (T. rubrum) [1]: C (16 to 32 μg/ml)

Cc1nn(-c2ccc(Cl)cc2O)c(C)c1C [compound 30]
MIC (T. rubrum) [1]: A (≦2 μg/ml) | MIC (T. mentagrophytes) [2]: A (≦1 μg/ml)

CCOC(=O)c1c(C)nn(-c2ccccc2O)c1C [compound 22]
MIC (T. rubrum) [1]: D (>32 to 64 μg/ml)

Cc1cc(C)n(-c2ccc(O)cc2O)n1 [compound 33]
MIC (T. rubrum) [1]: A (≦2 μg/ml)

CNc1ccc(-n2nc(C)cc2C)c(O)c1 [compound 48]
MIC (T. rubrum) [1]: B (4 to 16 μg/ml)

Cc1nn(-c2ccc(F)cc2O)c(C)c1Cl [compound 21]
MIC (T. rubrum) [1]: B (4 to 16 μg/ml) | MIC (T. mentagrophytes) [2]: A (≦1 μg/ml)

Cc1cc(C)n(-c2ccc(C(=O)N(C)C)cc2O)n1 [compound 38]
MIC (T. rubrum) [1]: B (4 to 16 μg/ml)

Cc1nn(-c2ccc(Br)cc2O)c(C)c1C [compound 56]
MIC (T. rubrum) [1]: A (≦2 μg/ml) | MIC (T. mentagrophytes) [2]: A (≦1 μg/ml)

Cc1nn(-c2ccc(Br)cc2O)c(C)c1Cl [compound 55]
MIC (T. rubrum) [1]: A (≦2 μg/ml) | MIC (T. mentagrophytes) [2]: A (≦1 μg/ml)

Cc1cc(C)n(-c2c(N)cccc2O)n1 [compound 36]
MIC (T. rubrum) [1]: D (>32 to 64 μg/ml)

Cc1nn(-c2ccc(C(=O)O)cc2O)c(C)c1C [compound 40]
MIC (T. rubrum) [1]: D (>32 to 64 μg/ml)

CCc1ccc(-n2nc(C)cc2C)c(O)c1 [compound 52]
MIC (T. rubrum) [1]: A (≦2 μg/ml) | MIC (T. mentagrophytes) [2]: A (≦1 μg/ml)

Cc1cc(C)n(-c2ccc(Br)cc2O)n1 [compound 54]
MIC (T. rubrum) [1]: A (≦2 μg/ml) | MIC (T. mentagrophytes) [2]: A (≦1 μg/ml)

Cc1ccc(O)c(-n2nc(C)cc2C)c1 [compound 49]
MIC (T. rubrum) [1]: D (>32 to 64 μg/ml)

Cc1cc(C)n(-c2c(C)cccc2O)n1 [compound 46]
MIC (T. rubrum) [1]: D (>32 to 64 μg/ml)

Cc1cc(C)n(-c2ccc(N)cc2O)n1 [compound 31]
MIC (T. rubrum) [1]: B (4 to 16 μg/ml)

Cc1nn(-c2ccc(F)cc2O)c(C)c1C [compound 18]
MIC (T. rubrum) [1]: B (4 to 16 μg/ml)

Cc1cc(C)n(-c2ccc(F)cc2O)n1 [compound 25]
MIC (T. rubrum) [1]: B (4 to 16 μg/ml)

Cc1ccc(-n2nc(C)cc2C)c(O)c1 [compound 44]
MIC (T. rubrum) [1]: A (≦2 μg/ml) | MIC (T. mentagrophytes) [2]: A (≦1 μg/ml)

Cc1nn(-c2cc(F)ccc2O)c(C)c1C [compound 20]
MIC (T. rubrum) [1]: D (>32 to 64 μg/ml)

COC(=O)c1ccc(-n2nc(C)cc2C)c(O)c1 [compound 35]
MIC (T. rubrum) [1]: C (16 to 32 μg/ml)

CC(=O)Oc1ccc(-n2nc(C)c(Cl)c2C)c(O)c1 [compound 58]
MIC (T. rubrum) [1]: A (≦2 μg/ml)

Cc1cc(C)n(-c2ccc([N+](=O)[O-])cc2O)n1 [compound 28]
MIC (T. rubrum) [1]: C (16 to 32 μg/ml)

CC(=O)Oc1ccc(-n2nc(C)cc2C)c(O)c1 [compound 57]
MIC (T. rubrum) [1]: B (4 to 16 μg/ml)

Cc1cc(C)n(-c2cccc(C)c2O)n1 [compound 51]
MIC (T. rubrum) [1]: D (>32 to 64 μg/ml)

CCCCc1c(C)nn(-c2ccccc2O)c1C [compound 24]
MIC (T. rubrum) [1]: C (16 to 32 μg/ml) | MIC (T. mentagrophytes) [2]: A (≦1 μg/ml)
